A short description of experiment [1]: enhancers of respiration in Yfh1-depleted yeast, dose response, Friedreich's ataxia, plus single-dose screen (AID 1465).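 Note: yeast depleted of Yfh1p frataxin homolog grown on glycerol needing respiration; WST-1 tetrazolium dye reduction as measure of cellular dehydrogenase metabolic activity.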 It is filed as functional.
For experiment [2], the target named is Bifunctional protein GlmU (Mycobacterium tuberculosis, UniProt P9WMN3). As to the kind of experiment: Inhibitors of Mycobacterial Glucosamine-1-phosphate acetyl transferase (GlmU). Secondary screen. Set-up: species or system Mycobacterium tuberculosis H37Rv.
Experiment [3] has as its target Induced myeloid leukemia cell differentiation protein Mcl-1 (Homo sapiens, UniProt Q07820). Format: functional.
The target of experiment [4] is T1, Apoptotic protease-activating factor 1 (Homo sapiens, UniProt O14727).
T1 sequence (O14727 whole entry): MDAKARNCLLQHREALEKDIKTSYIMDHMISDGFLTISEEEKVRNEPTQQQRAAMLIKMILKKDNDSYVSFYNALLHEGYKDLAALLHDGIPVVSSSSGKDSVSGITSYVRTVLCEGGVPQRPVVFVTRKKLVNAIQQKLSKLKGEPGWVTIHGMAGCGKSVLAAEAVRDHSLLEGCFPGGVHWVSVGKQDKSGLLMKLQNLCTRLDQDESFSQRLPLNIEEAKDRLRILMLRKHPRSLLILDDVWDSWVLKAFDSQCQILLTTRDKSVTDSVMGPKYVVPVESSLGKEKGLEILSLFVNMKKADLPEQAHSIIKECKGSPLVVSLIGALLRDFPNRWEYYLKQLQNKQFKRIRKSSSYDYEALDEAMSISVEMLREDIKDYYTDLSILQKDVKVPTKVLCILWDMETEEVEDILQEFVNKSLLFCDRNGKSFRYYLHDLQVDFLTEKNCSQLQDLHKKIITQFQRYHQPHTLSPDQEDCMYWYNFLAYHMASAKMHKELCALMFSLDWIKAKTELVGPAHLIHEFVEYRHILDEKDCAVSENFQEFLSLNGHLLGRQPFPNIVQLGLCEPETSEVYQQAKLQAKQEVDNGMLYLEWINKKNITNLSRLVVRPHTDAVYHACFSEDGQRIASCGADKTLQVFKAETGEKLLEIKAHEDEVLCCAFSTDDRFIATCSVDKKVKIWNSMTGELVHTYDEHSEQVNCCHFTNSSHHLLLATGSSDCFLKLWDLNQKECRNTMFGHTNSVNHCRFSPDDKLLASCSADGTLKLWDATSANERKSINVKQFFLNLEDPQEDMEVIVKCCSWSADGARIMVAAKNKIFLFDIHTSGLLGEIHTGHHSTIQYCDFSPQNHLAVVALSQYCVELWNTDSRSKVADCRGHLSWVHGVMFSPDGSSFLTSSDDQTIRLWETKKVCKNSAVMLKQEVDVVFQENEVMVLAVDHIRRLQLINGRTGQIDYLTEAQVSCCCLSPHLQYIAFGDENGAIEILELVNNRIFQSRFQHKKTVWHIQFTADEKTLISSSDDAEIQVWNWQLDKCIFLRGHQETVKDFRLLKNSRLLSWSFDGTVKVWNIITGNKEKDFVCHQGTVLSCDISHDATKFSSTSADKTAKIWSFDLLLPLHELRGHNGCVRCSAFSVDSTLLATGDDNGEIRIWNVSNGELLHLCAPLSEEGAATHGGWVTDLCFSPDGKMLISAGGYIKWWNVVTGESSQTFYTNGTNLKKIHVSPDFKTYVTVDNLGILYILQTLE
It is filed as functional.

The target of experiment [5] is T2, Tyrosyl-DNA phosphodiesterase 2 (Homo sapiens, UniProt O95551).
T2 sequence (O95551 whole entry): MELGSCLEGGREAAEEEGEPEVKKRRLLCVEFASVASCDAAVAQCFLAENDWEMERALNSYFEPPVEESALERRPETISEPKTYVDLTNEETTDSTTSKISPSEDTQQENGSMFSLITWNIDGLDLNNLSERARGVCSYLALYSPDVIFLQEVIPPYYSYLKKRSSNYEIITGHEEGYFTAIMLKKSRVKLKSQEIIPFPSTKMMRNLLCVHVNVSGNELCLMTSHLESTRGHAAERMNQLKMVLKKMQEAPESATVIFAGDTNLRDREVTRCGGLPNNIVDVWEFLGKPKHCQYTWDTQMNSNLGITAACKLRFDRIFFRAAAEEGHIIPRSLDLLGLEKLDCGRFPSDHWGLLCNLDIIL
Nature of the experiment: human TDP2 enzyme inhibitors, dose response, biochemical, epi absorbance, IC50 (AID 743297).

Active and inactive are the calls of the source.

In general, EC50 refers to the midpoint of the concentration-response curve. For orientation: IC50 means the concentration at which inhibition is half-maximal.

Induced myeloid leukemia cell differentiation protein Mcl-1, sequence (Q07820 whole entry): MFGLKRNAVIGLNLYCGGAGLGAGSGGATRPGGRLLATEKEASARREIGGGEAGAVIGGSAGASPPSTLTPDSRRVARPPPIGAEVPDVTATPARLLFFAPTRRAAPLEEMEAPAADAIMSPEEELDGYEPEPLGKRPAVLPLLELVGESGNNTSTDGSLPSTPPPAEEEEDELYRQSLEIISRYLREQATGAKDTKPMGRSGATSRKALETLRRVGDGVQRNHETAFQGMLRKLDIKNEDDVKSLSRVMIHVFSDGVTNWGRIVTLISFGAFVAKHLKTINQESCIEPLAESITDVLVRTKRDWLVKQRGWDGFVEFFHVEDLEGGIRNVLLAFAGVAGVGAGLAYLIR
Bifunctional protein GlmU, sequence (P9WMN3 whole entry): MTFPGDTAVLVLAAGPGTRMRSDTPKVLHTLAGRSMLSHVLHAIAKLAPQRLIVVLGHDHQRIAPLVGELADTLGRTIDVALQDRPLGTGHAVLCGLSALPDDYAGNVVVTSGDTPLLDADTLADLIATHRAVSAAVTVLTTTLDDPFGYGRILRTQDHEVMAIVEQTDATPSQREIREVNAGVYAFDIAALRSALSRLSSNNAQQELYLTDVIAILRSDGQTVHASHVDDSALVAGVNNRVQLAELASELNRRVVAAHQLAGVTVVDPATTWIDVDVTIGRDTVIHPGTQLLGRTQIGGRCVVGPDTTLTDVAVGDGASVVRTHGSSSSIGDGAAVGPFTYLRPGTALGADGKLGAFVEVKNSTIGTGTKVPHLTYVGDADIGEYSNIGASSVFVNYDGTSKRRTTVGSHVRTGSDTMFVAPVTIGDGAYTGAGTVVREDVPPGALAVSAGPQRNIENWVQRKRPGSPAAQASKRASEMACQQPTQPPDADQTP

As for `Oc1ccc(/C=N/NC(=S)Nc2cccnc2)c(O)c1O`, the EC50 in experiment [1] was > 100 µM (active). Moreover, the IC50 in experiment [2] is 83 µM (active); in experiment [3], 19.5 µM (active).
For the compound `COC(=O)c1ccc(-c2ccc(C(c3c(C)[nH][nH]c3=O)c3c(C)[nH][nH]c3=O)o2)cc1`, the IC50 in experiment [4] is 23.9 µM (active); in experiment [5] it was 74.3 µM (inactive).
